Reference: patent US11052063B2, “Methods of reducing RLP-C” (Amarin Pharmaceuticals Ireland Limited, priority 2014, dated 2021)

Tested on: Serum RLP-C
Test: 12-week placebo-controlled study (ANCHOR), serum RLP-C by immunoseparation assay, statin-treated patients with fasting TG ≥200 and <500 mg/dl
Assay type: in vivo, human
Details: for Median Change from Baseline in RLP-C vs. Placebo: Hodges-Lehmann estimate; for Median Change from Baseline in RLP-C vs. Placebo / RLP-C Concentration End of Treatment: week 12; for RLP-C Concentration Change: median change from baseline to week 12; for RLP-C Concentration Baseline / RLP-C Concentration End of Treatment: median; for RLP-C Concentration Baseline: before treatment
Experimental: A multi-center, placebo-controlled, randomized, double-blind, 12-week study was performed to evaluate the efficacy and safety of >96% E-EPA in patients with fasting triglyceride levels≥200 mg/dl and <500 mg/dl despite statin therapy (the mean of two qualifying entry values needed to be ≥185 mg/dl and at least one of the values needed to be ≥200 mg/dl). The primary objective of the study was to determine the efficacy of >96%, by weight of all fatty acids present, ethyl-EPA (“AMR101”) 2 g daily and 4 g daily, compared to placebo, in lowering fasting TG levels in patients with high risk for cardiovascular disease and with fasting TG levels≥200 mg/dl and <500 mg/dl, despite treatment to LDL-C goal on statin therapy. The population for this study was men and women>18 years of age with a body mass index≤45 kg/m^2 with fasting TG levels greater than or equal to 200 mg/dl and less than 500 mg/dl and on a stable does of statin therapy (with or without ezetimibe). The statin was atorvostatin, rosuvastatin or simvastatin. The dose of statin must have been stable for ≥4 weeks prior to the LDL-C/TG baseline qualifying measurement for randomization. The statin dose was optimized such that the patients are at their LDL-C goal at the LDL-C/TG baseline qualifying measurements. The same statin at the same dose was continued until the study ended. Approximately 702 patients were randomized at approximately 80 centers in the U.S. The study was a 18- to 20-week, Phase 3, multi-center study consisting of 2 study periods: (1) A 6- to 8-week screening period that included a diet and lifestyle stabilization, a non-statin lipid-altering treatment washout, and an LDL-C and TG qualifying period and (2) A 12-week, double-blind, randomized, placebo-controlled treatment period. After confirmation of qualifying fasting LDL-C and TG values, eligible patients entered a 12-week, randomized, double-blind treatment period. At Visit 4 (Week 0), patients were randomly assigned to 1 of the following treatment groups: • >96% E-EPA 2 g daily, • >96% E-EPA 4 g daily, or • Placebo. >96% E-EPA was provided in 1 g liquid-filled, oblong, gelatin capsules. The matching placebo capsule was filled with light liquid paraffin and contained 0 g of >96% E-EPA. >96% E-EPA capsules were to be taken with food (i.e. with or at the end of a meal). During the double-blind treatment period, patients were to take 2 capsules (>96% E-EPA or matching placebo) in the morning and 2 capsules in the evening for a total of 4 capsules per day. • Patients in the >96% E-EPA 2 g/day treatment group received 1 >96% E-EPA 1 g capsule and 1 matching placebo capsule in the morning and in the evening. • Patients in the >96% E-EPA 4 g/day treatment group received 2 >96% E-EPA 1 g capsules in the morning and evening. The primary efficacy variable for the double-blind treatment period was percent change in TG from baseline to Week 12 endpoint. […]

[1] = 2 g/day, Baseline TG <259 mg/dl
[2] = 2 g/day, Baseline TG ≥259 mg/dl
[3] = 2 g/day, Lower Statin Intensity
[4] = 2 g/day, Medium and Higher Statin Intensity
[5] = 4 g/day, Baseline TG <259 mg/dl
[6] = 4 g/day, Baseline TG ≥259 mg/dl
[7] = 4 g/day, Lower Statin Intensity
[8] = 4 g/day, Medium and Higher Statin Intensity

CC/C=C\C/C=C\C/C=C\C/C=C\C/C=C\CCCC(=O)OCC [AMR101, ethyl-EPA]
RLP-C compared to placebo (2 g/day treatment group, 12 weeks): reduced RLP-C compared to placebo | Median Change from Baseline in RLP-C vs. Placebo [1]: −16.4% | RLP-C Concentration Change [1]: −8.1% | RLP-C Concentration Baseline [1]: 11.5 mg/dL | RLP-C Concentration End of Treatment [1]: 11.0 mg/dL | Median Change from Baseline in RLP-C vs. Placebo [2]: −18.0% | RLP-C Concentration Change [2]: −17.4% | RLP-C Concentration Baseline [2]: 18.0 mg/dL | RLP-C Concentration End of Treatment [2]: 13.5 mg/dL | Median Change from Baseline in RLP-C vs. Placebo (2 g/day, ITT): −16.7% | RLP-C Concentration Change (2 g/day, ITT): −11.1% | RLP-C Concentration Baseline (2 g/day, ITT): 15.0 mg/dL | RLP-C Concentration End of Treatment (2 g/day, ITT): 11.0 mg/dL | Median Change from Baseline in RLP-C vs. Placebo [3]: 2.7% | RLP-C Concentration Change [3]: −11.1% | RLP-C Concentration Baseline [3]: 15.0 mg/dL | RLP-C Concentration End of Treatment [3]: 11.0 mg/dL | Median Change from Baseline in RLP-C vs. Placebo [4]: −17.3% | RLP-C Concentration Change [4]: −11.1% | RLP-C Concentration Baseline [4]: 15.0 mg/dL | RLP-C Concentration End of Treatment [4]: 11.0 mg/dL | median placebo-adjusted reduction in RLP-C (4 g/day treatment group, 12 weeks, p=0.0001, stated as reduction): 25.8% | reductions in RLP-C compared to baseline (4 g/day treatment group, 12 weeks, stated as reduction): 24.0% | Median Change from Baseline in RLP-C vs. Placebo [5]: −22.2% | RLP-C Concentration Change [5]: −16.0% | RLP-C Concentration Baseline [5]: 11.0 mg/dL | RLP-C Concentration End of Treatment [5]: 9.0 mg/dL | Median Change from Baseline in RLP-C vs. Placebo [6]: −30.6% | RLP-C Concentration Change [6]: −31.3% | RLP-C Concentration Baseline [6]: 17.0 mg/dL | RLP-C Concentration End of Treatment [6]: 11.0 mg/dL | Median Change from Baseline in RLP-C vs. Placebo (4 g/day, ITT): −25.8% | RLP-C Concentration Change (4 g/day, ITT): −24.0% | RLP-C Concentration Baseline (4 g/day, ITT): 13.5 mg/dL | RLP-C Concentration End of Treatment (4 g/day, ITT): 10.0 mg/dL | Median Change from Baseline in RLP-C vs. Placebo [7]: −11.9% | RLP-C Concentration Change [7]: −29.2% | RLP-C Concentration Baseline [7]: 16.0 mg/dL | RLP-C Concentration End of Treatment [7]: 15.0 mg/dL | Median Change from Baseline in RLP-C vs. Placebo [8]: −26.7% | RLP-C Concentration Change [8]: −23.1% | RLP-C Concentration Baseline [8]: 13.0 mg/dL | RLP-C Concentration End of Treatment [8]: 10.0 mg/dL | RLP-C reductions by statin intensity (subjects on moderate- to high-intensity statin therapy compared to lower-intensity statin therapy): greater RLP-C reductions
